Laboratory results taken from patent publication US4925968A, “N-acyl-N-naphthoylglycines as aldose reductase inhibitors” (American Home Products Corporation, priority 1989, dated 1990).

System: aldose reductase
Assay: galactitol (dulcitol) accumulation in lens, sciatic nerve and diaphragm of galactosemic rats
Type: in vivo, rat (Sprague-Dawley, male)
Conditions: 4 days; for % Lowering dulcitol accumulation IN VIVO, D: diaphragm; for % Lowering dulcitol accumulation IN VIVO, L: lens
Excerpt: Such experiments are exemplified hereinbelow after the listing of the following general comments pertaining to these experiments: (a) Four or more groups of six male rats, 50-70 g, Sprague-Dawley strain, were used. The first group, the control group, was fed a mixture of laboratory chow (rodent Laboratory Chow, Purina) and glucose at 20% (w/w %) concentration. […] The test compound was either admixed to the diet or administered by gavage. In experiments involving compound administration in the diet, the average dose administered was calculated from the actual food intake of the animals in each group. The concentration of galactose in the diet of the treated groups was the same as that for the untreated galactosemic group. (b) After four days, the animals were killed by decapitation. The eyeballs were removed and punctured with a razor blade; the freed lenses were rolled gently on filter paper and weighed. The sciatic nerves were dissected as completely as possible and weighed. Both tissues when frozen can be kept up to two weeks before being analyzed for galactitol. […] Only two minor reagent changes were made: (a) The rinsing mixture was an aqueous 5% (w/v) trichloroacetic acid solution and (b) the stock solution was prepared by dissolving 25 mg of dulcitol in 100 mL of an aqueous trichloroacetic acid solution. [N.B.: For each experiment the average value found in the tissue from rats fed the glucose diet was subtracted from the individual values found in the corresponding tissue in galactose-fed rats to obtain the amount of polyol accumulated.] […] In the present case the procedure of Hayman and Kinoshita was modified in that the final chromatography step was omitted in the preparation of the enzyme from bovine lens. […] The figures under L, N, and D represent the percentage decrease of galactitol accumulation in the tissues of the lens, sciatic nerve, and diaphragm, respectively, for treated rats as compared to untreated rats.

In the case of `COc1ccc2c(C(=O)N(CC(=O)O)C(=O)c3ccccc3)cccc2c1C(F)(F)F` [Example 10, N-Benzoyl-N-[[6-methoxy-5-(trifluoromethyl)-1-naphthalenyl]carbonyl]glycine], the “% Lowering dulcitol accumulation IN VIVO, D” value (50 mg/kg) is reported as “N.S” and the “% Lowering dulcitol accumulation IN VIVO, L” value (50 mg/kg) is reported as “N.S”.

In the case of `CCOC(=O)N(CC(=O)O)C(=O)c1cccc2c(C(F)(F)F)c(OC)ccc12` [Example 1, N-[[6-Methoxy-5-(trifluoromethyl)-1-naphthalenyl]carbonyl]-N-[(ethoxy)carbonyl]glycine], the “% Lowering dulcitol accumulation IN VIVO, D” value (57 mg/kg) is reported as 70%, the “% Lowering dulcitol accumulation IN VIVO, D” value (97 mg/kg) is reported as 83% and the “% Lowering dulcitol accumulation IN VIVO, L” value (57 mg/kg) is reported as 19%. The “% Lowering dulcitol accumulation IN VIVO, L” value (97 mg/kg) was 12%.

With `COC(=O)N(CC(=O)O)C(=O)c1cccc2c(C(F)(F)F)c(OC)ccc12` [Example 2, N-[[6-Methoxy-5-(trifluoromethyl)-1-naphthalenyl]-carbonyl]-N-[(methoxy)carbonyl]glycine] the “% Lowering dulcitol accumulation IN VIVO, D” value (48 mg/kg) was 54% and the “% Lowering dulcitol accumulation IN VIVO, L” value (48 mg/kg) was “N.S”.

With `COc1ccc2c(C(=O)N(CC(=O)O)C(C)=O)cccc2c1C(F)(F)F` [Example 9] the “% Lowering dulcitol accumulation IN VIVO, D” value (100 mg/kg) was 39% and the “% Lowering dulcitol accumulation IN VIVO, L” value (100 mg/kg) was “N.S”.

`CC(=O)N(CC(=O)O)C(=O)c1cccc2c(Br)cccc12` [Example 15] was tested, and the “% Lowering dulcitol accumulation IN VIVO, D” value (112 mg/kg) was “N.S” and the “% Lowering dulcitol accumulation IN VIVO, L” value (112 mg/kg) was “N.S”.

In the case of `COc1ccc2c(C(=O)N(CC(=O)O)C(=O)OCC(C)(C)C)cccc2c1C(F)(F)F` [Example 5], the “% Lowering dulcitol accumulation IN VIVO, D” value (105 mg/kg) is reported as “N.S” and the “% Lowering dulcitol accumulation IN VIVO, L” value (105 mg/kg) is reported as “N.S”.

In the case of `CCCOC(=O)N(CC(=O)O)C(=O)c1cccc2c(C(F)(F)F)c(OC)ccc12` [Example 3], the “% Lowering dulcitol accumulation IN VIVO, D” value (48 mg/kg) is reported as “N.S” and the “% Lowering dulcitol accumulation IN VIVO, L” value (48 mg/kg) is reported as “N.S”.

`COC(=O)N(CC(=O)O)C(=O)c1cccc2c(Br)cccc12` [Example 12] was tested, and the “% Lowering dulcitol accumulation IN VIVO, D” value (102 mg/kg) was 24% and the “% Lowering dulcitol accumulation IN VIVO, L” value (102 mg/kg) was “N.S”.

For `O=CN(CC(=O)O)C(=O)c1cccc2c(Br)cccc12` [Example 14], the “% Lowering dulcitol accumulation IN VIVO, D” value (104 mg/kg) was 17% and the “% Lowering dulcitol accumulation IN VIVO, L” value (104 mg/kg) was “N.S”.

With `COc1ccc2c(C(=O)N(CC(=O)O)C(=O)OCc3ccccc3)cccc2c1C(F)(F)F` [Example 6] the “% Lowering dulcitol accumulation IN VIVO, D” value (67 mg/kg) was “N.S” and the “% Lowering dulcitol accumulation IN VIVO, L” value (67 mg/kg) was “N.S”.

`O=C(O)CN(C(=O)c1ccccc1)C(=O)c1cccc2c(Br)cccc12` [Example 16] was tested, and the “% Lowering dulcitol accumulation IN VIVO, D” value (111 mg/kg) was “N.S” and the “% Lowering dulcitol accumulation IN VIVO, L” value (111 mg/kg) was “N.S”.

`COc1ccc2c(C(=O)N(C=O)CC(=O)O)cccc2c1C(F)(F)F` [Example 8, N-Formyl-N-[[6-methoxy-5-(trifluoromethyl)-1-naphthalenyl]carbonyl]glycine] was tested, and the “% Lowering dulcitol accumulation IN VIVO, D” value (107 mg/kg) was 82% and the “% Lowering dulcitol accumulation IN VIVO, L” value (107 mg/kg) was 13%.

For `COc1ccc2c(C(=O)N(CC(=O)O)C(=O)OCc3ccc(Cl)c([N+](=O)[O-])c3)cccc2c1C(F)(F)F` [Example 7], the “% Lowering dulcitol accumulation IN VIVO, D” value (107 mg/kg) was “N.S” and the “% Lowering dulcitol accumulation IN VIVO, L” value (107 mg/kg) was “N.S”.

`COc1ccc2c(C(=O)N(CC(=O)O)C(=O)OC(C)C)cccc2c1C(F)(F)F` [Example 4] was tested, and the “% Lowering dulcitol accumulation IN VIVO, D” value (dose (mg/kg) printed as N.S.) was “N.S” and the “% Lowering dulcitol accumulation IN VIVO, L” value (dose (mg/kg) printed as N.S.) was “N.S”.
